Experimental data taken from US10660877B2 (BRISTOL-MYERS SQUIBB COMPANY, priority 2016, dated 2020).

How the values were obtained:
human TLR7 = human TLR7 (Homo sapiens (Human), UniProt Q9NYK1); test: TLR7 inhibition reporter assay (HEK-Blue cells, SEAP reporter, gardiquimod stimulation); type: cell-based; details: HEK-Blue cells overexpressing human TLR7, gardiquimod 7.5 μM
TLR7 = test: In vivo mouse TLR7 PD model (gardiquimod challenge, plasma IL-6); set-up: species or system C57BL/6 mice; details: oral
Experimental: In Vivo Mouse TLR7 and TLR9 PD Model:
(§1) Adult male C57BL/6 mice were used for the experiments. Mice (7 to 10 per group) were randomized into different treatment groups based on body weight. Mice from the respective treatment groups were administered orally with vehicle or test compound. Thirty min after the oral administration of vehicle or test compound, mice were challenged with intraperitoneal injection of gardiquimod for TLR7 PD model and CpG-ODN for TLR9 PD model. Ninety minutes after gardiquimod injection and 120 minutes after CpG-ODN injection, mice were bled under isoflurane anaesthesia and plasma IL-6 level was estimated by using commercially available ELISA kit (BD Biosciences). At the end of experiment, mean cytokine data was plotted and one way ANOVA with Dunnett's test was performed to calculate the significance of test compound treated group vs. vehicle control group. Percent inhibition of cytokine induction was calculated for test compound treated group vs vehicle control group.

TLR9 = test: In vivo mouse TLR9 PD model (CpG-ODN challenge, plasma IL-6); set-up: species or system C57BL/6 mice; details: oral
Experimental: as §1, with “In Vivo Mouse TLR7 and TLR9 PD Model: Adult” for “Adult”

MRL/lpr mice = test: MRL/lpr model of systemic lupus erythematosus (proteinuria, urinary NGAL, anti-dsDNA Ab titer, lymphadenopathy); type: in vivo, mouse; details: oral once daily
Experimental: MRL/lpr Model of Systemic Lupus Erythematosus (SLE) Male MRL/lpr mice of 12-14 weeks age were screened and randomized based on the titers of anti-dsDNA antibodies and urinary NGAL (Neutrophil Gelatinase Associated Lipocalin). Mice were treated orally, once daily for 8 weeks with vehicle or test compound. The effect of test compound on disease severity was assessed by measuring end points including proteinuria, urinary-NGAL, anti-dsDNA Ab titer, and lymphadenopathy. These end points were assessed before the start of treatment and after 4 and 8 weeks of treatment. At the end of experiment, all mice were euthanized by CO2 asphyxiation and kidney samples were subjected for histology. At the end of experiment, one way ANOVA with Dunnett's test was performed to calculate the significance of test compound treated group vs. vehicle control group. Percent reduction in disease severity was calculated for each parameter, for test compound treated group vs vehicle control group.

human TLR8 = human TLR8 (Homo sapiens (Human), UniProt Q9NR97); test: TLR8 inhibition reporter assay (HEK-Blue cells, SEAP reporter, R848 stimulation); details: read-out: TLR8 IC50, HEK-Blue cells overexpressing human TLR8, R848 15.9 μM;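 also: compounds tested from 0.05 nM to 50 µM, 22 h at 37 °C, SEAP measured with HEK-Blue Detection, inhibition relative to agonist plus DMSO versus a known inhibitor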
human TLR9 = human TLR9 (Homo sapiens (Human), UniProt Q9NR96); test: TLR9 inhibition reporter assay (HEK-Blue cells, SEAP reporter, ODN2006 stimulation); details: read-out: TLR9 IC50, HEK-Blue cells overexpressing human TLR9, ODN2006 5 nM;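 also: compounds tested over 0.05 nM to 50 µM, 22 h incubation, inhibition taken as SEAP signal drop from agonist plus DMSO wells toward a known inhibitor control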
human TLR9, sequence (Q9NR96 26-1032): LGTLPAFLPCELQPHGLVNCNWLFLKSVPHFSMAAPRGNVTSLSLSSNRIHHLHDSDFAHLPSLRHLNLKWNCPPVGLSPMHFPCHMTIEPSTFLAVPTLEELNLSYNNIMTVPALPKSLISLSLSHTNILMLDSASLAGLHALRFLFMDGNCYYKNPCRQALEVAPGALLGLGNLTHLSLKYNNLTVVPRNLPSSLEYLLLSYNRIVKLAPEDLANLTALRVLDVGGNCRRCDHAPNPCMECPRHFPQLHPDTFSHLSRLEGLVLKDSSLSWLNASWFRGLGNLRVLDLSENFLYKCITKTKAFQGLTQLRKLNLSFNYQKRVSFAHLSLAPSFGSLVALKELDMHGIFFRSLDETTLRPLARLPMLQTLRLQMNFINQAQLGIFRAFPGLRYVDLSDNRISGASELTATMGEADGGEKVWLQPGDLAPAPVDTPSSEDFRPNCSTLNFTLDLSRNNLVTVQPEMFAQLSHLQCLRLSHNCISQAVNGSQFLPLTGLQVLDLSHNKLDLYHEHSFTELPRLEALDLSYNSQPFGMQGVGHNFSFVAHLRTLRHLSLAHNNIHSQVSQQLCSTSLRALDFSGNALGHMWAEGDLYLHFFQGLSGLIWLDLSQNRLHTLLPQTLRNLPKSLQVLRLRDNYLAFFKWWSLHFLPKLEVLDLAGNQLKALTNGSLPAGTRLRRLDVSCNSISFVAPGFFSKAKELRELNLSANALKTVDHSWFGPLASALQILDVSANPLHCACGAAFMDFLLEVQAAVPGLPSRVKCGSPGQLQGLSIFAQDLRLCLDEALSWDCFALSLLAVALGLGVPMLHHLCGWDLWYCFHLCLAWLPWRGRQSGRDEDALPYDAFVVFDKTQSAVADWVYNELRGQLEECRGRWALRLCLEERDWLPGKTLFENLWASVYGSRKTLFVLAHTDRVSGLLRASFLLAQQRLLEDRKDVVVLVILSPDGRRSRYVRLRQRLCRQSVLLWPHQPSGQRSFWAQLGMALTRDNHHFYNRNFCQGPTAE

human TLR7, sequence (Q9NYK1 27-1049): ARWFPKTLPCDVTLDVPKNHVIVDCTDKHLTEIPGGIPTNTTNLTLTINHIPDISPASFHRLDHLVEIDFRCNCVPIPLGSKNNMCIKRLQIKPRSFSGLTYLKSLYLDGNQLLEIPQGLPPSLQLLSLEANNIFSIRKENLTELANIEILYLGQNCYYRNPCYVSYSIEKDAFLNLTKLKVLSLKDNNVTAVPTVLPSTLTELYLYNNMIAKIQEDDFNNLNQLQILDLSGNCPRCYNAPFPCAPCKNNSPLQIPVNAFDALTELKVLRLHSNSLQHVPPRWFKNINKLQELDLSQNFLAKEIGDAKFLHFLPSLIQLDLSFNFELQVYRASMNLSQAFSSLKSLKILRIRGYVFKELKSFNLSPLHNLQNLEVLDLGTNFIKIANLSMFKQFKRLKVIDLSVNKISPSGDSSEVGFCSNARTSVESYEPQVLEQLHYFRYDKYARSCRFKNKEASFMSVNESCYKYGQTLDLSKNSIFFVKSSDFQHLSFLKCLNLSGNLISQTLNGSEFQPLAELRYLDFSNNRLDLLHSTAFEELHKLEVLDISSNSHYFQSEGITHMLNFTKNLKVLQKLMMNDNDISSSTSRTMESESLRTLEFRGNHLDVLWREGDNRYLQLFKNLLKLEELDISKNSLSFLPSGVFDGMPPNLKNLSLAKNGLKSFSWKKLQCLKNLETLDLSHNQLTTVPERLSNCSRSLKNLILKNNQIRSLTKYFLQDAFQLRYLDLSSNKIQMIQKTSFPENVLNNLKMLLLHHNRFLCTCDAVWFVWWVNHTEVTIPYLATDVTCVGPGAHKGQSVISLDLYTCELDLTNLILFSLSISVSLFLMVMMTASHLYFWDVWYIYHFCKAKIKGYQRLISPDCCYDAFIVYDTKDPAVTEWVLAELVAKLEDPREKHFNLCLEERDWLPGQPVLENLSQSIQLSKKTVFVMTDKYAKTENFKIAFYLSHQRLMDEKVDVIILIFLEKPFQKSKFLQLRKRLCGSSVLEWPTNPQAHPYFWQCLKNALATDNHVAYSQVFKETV
human TLR8, sequence (Q9NR97 27-1041): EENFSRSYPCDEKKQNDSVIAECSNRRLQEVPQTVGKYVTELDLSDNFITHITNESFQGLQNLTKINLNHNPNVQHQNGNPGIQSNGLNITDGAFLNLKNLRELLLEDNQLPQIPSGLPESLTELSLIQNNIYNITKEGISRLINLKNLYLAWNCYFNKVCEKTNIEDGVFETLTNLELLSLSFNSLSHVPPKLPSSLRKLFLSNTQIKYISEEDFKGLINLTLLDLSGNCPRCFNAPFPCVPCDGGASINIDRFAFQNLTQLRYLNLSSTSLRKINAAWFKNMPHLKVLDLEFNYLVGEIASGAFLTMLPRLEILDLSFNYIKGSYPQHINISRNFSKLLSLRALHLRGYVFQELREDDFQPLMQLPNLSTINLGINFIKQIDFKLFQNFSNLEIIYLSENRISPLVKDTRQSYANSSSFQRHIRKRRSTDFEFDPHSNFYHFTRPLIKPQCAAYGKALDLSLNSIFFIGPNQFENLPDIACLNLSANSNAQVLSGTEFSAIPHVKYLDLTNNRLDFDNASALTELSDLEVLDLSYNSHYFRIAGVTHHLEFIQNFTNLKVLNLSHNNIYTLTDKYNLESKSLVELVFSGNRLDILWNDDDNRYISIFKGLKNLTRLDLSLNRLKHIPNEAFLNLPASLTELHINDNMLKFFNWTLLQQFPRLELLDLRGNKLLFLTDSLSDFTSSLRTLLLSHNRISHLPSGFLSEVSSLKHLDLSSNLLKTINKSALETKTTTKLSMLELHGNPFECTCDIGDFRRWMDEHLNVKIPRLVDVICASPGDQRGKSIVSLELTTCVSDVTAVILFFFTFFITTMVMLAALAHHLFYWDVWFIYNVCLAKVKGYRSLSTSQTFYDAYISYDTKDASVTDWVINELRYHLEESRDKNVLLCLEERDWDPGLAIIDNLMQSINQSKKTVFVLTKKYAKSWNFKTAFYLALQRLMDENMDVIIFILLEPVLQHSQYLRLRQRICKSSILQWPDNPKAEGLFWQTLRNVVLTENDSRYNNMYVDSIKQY

Q: For `Cc1cc(-c2[nH]c3ccc(C4CCNCC4)cc3c2C(C)C)cc(C)n1.Cl` [Example 1, 2-(2,6-dimethylpyridin-4-yl)-3-isopropyl-5-(piperidin-4-yl)-1H-indole hydrochloride], which IC50 (human TLR7) is on record?
A: Its IC50 is 0.7 nM.

Q: And the “% inhibition of IL6” value (TLR7; 0.03 mg/kg)?
A: Its value is 28%.

Q: What about the “% inhibition of IL6” value (TLR7; 0.05 mg/kg) of the same compound?
A: Its value is 66%.

Q: What about the “% inhibition of IL6” value (TLR7; 0.5 mg/kg) of the same compound?
A: Its value is 98%.

Q: And the “% inhibition of IL6” value (TLR9; 1 mg/kg)?
A: Its value is 16%.

Q: What about the “% inhibition of IL6” value (TLR9; 3 mg/kg) of the same compound?
A: Its value is 29%.

Q: What about the “% inhibition of IL6” value (TLR9; 10 mg/kg) of the same compound?
A: Its value is 33%.

Q: And the “% inhibition of IL6” value (TLR9; 30 mg/kg)?
A: The value was 38%.

Q: What about the “% inhibition Anti-dsDNA antibody titer” value (MRL/lpr mice; 0.1 mg/kg) of the same compound?
A: Its value is 1%.

Q: What about the “% inhibition IL-10” value (MRL/lpr mice; 0.1 mg/kg) of the same compound?
A: The value was 24%.

Q: And the “% inhibition IL-12p40” value (MRL/lpr mice; 0.1 mg/kg)?
A: Its value is 12%.

Q: And the “% inhibition Lymphadenopathy” value (MRL/lpr mice; 0.1 mg/kg)?
A: The value was 3%.

Q: What about the “% inhibition Proteinuria” value (MRL/lpr mice; 0.1 mg/kg) of the same compound?
A: Its value is 69%.

Q: And the “% inhibition Urinary NGAL” value (MRL/lpr mice; 0.1 mg/kg)?
A: The value was 52%.

Q: What about the “% inhibition Anti-dsDNA antibody titer” value (MRL/lpr mice; 1 mg/kg) of the same compound?
A: Its value is 14%.

Q: And the “% inhibition IL-10” value (MRL/lpr mice; 1 mg/kg)?
A: Its value is 32%.

Q: And the “% inhibition IL-12p40” value (MRL/lpr mice; 1 mg/kg)?
A: The value was 26%.

Q: And the “% inhibition Lymphadenopathy” value (MRL/lpr mice; 1 mg/kg)?
A: The value was 31%.

Q: And the “% inhibition Proteinuria” value (MRL/lpr mice; 1 mg/kg)?
A: The value was 92%.

Q: And the “% inhibition Urinary NGAL” value (MRL/lpr mice; 1 mg/kg)?
A: The value was 69%.

Q: What about the “% inhibition Anti-dsDNA antibody titer” value (MRL/lpr mice; 5 mg/kg) of the same compound?
A: Its value is 20%.

Q: And the “% inhibition IL-10” value (MRL/lpr mice; 5 mg/kg)?
A: Its value is 39%.

Q: And the “% inhibition IL-12p40” value (MRL/lpr mice; 5 mg/kg)?
A: Its value is 30%.

Q: And the “% inhibition Lymphadenopathy” value (MRL/lpr mice; 5 mg/kg)?
A: The value was 33%.

Q: And the “% inhibition Proteinuria” value (MRL/lpr mice; 5 mg/kg)?
A: Its value is 92%.

Q: What about the “% inhibition Urinary NGAL” value (MRL/lpr mice; 5 mg/kg) of the same compound?
A: The value was 72%.

Q: What about the “% inhibition Anti-dsDNA antibody titer” value (MRL/lpr mice; 20 mg/kg) of the same compound?
A: Its value is 53%.

Q: And the “% inhibition IL-10” value (MRL/lpr mice; 20 mg/kg)?
A: Its value is 53%.

Q: And the “% inhibition IL-12p40” value (MRL/lpr mice; 20 mg/kg)?
A: The value was 35%.

Q: What about the “% inhibition Lymphadenopathy” value (MRL/lpr mice; 20 mg/kg) of the same compound?
A: Its value is 53%.

Q: What about the “% inhibition Proteinuria” value (MRL/lpr mice; 20 mg/kg) of the same compound?
A: The value was 93%.

Q: What about the “% inhibition Urinary NGAL” value (MRL/lpr mice; 20 mg/kg) of the same compound?
A: The value was 81%.

Q: And the IC50 (human TLR8)?
A: Its IC50 is 3.2 nM.

Q: How did the IC50 (human TLR7) turn out when `Cc1cc(-c2[nH]c3ccc(C4CCN(CC(=O)N(C)C)CC4)cc3c2C(C)C)cc(C)n1` [Example 308, 2-(4-(2-(2,6-dimethylpyridin-4-yl)-3-isopropyl-1H-indol-5-yl)piperidin-1-yl)-N,N-dimethylacetamide] was run?
A: The IC50 was 1.5 nM.

Q: And the “% inhibition of IL6” value (TLR7; 0.002 mg/kg)?
A: Its value is 30%.

Q: What about the “% inhibition of IL6” value (TLR7; 0.008 mg/kg) of the same compound?
A: The value was 47%.

Q: What about the “% inhibition of IL6” value (TLR7; 0.032 mg/kg) of the same compound?
A: Its value is 81%.

Q: What about the “% inhibition of IL6” value (TLR7; 0.160 mg/kg) of the same compound?
A: The value was 98%.

Q: And the IC50 (human TLR8)?
A: Its IC50 is 4.3 nM.

Q: What about the IC50 (human TLR9) of the same compound?
A: The IC50 was 359 nM.
